Read-outs that look alike come from different tables or passages of the source.
Experiments:
[1] = cited from earlier work
[2] = cited from earlier work; remark: listed apart in the source
[3] = system: SARS-CoV-2; conditions: cited from earlier work
[4] = system: SARS-CoV-2-Nluc; experiment: in vitro; conditions: human
[5] = read-out: mean Cmax of plasma 1; AGM, 1 iv 10 mg/kg day 1 dose; cited from earlier work
[6] = system: SARS-CoV-2 WA1; experiment: SARS-CoV-2 nucleoprotein ELISA in A549-hACE2-TMPRSS2 cells, WA1; type: cell-based
[7] = molecular target: T1, adenosine deaminase (Homo sapiens, UniProt P00813); experiment: Metabolism by adenosine deaminase in vitro
T1 sequence (P00813 1-363): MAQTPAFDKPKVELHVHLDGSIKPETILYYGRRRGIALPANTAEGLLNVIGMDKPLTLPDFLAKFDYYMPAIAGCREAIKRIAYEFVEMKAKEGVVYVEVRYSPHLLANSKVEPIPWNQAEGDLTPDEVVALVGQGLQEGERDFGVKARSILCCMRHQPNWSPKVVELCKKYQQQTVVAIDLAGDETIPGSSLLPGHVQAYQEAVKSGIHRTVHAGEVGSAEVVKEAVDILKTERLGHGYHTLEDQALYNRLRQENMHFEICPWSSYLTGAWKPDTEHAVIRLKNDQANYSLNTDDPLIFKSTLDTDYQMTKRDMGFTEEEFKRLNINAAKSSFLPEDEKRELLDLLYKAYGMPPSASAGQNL

[8] = in vitro; conditions: human, microsomes
[9] = in vivo; conditions: nonhuman primates, iv
[10] = system: SARS-CoV-2; conditions: read-out: in vitro SARS-CoV-2 antiviral EC50; Vero E6 cells and primary lung cultures; cited from earlier work
[11] = Thermodynamic solubility in pH 7 buffered solution; type: physicochemical
[12] = system: Caco-2 cells; experiment: in vitro; type: in vitro ADME; conditions: Caco-2
[13] = in vitro; type: in vitro ADME; conditions: human, Caco-2, Caco-2 efflux ratio
[14] = type: in vitro ADME; conditions: 2 μM, pH 7.4
[15] = in vivo
[16] = type: in vitro ADME; conditions: 2 μM, pH 7.4; remark: listed apart in the source
[17] = type: in vitro ADME; conditions: 2 μM, pH 7.4; remark: listed apart in the source
[18] = system: SARS-CoV-2; experiment: AGM SARS-CoV-2 antiviral efficacy study
[19] = type: physicochemical; conditions: 24 h, 50 μg/mL
[20] = system: three human carboxyesterases; experiment: in vitro; type: in vitro ADME; conditions: pH 7.4
[21] = In vivo pharmacokinetics, rat; conditions: po, 6 mg/kg
[22] = type: in vitro ADME; conditions: 2 μM, pH 7.4; remark: listed apart in the source
[23] = type: in vitro ADME; conditions: 2 μM, pH 7.4; remark: listed apart in the source
[24] = type: in vitro ADME; conditions: 2 μM, pH 7.4; remark: listed apart in the source
[25] = type: in vitro ADME; conditions: 2 μM, pH 7.4; remark: listed apart in the source
[26] = type: in vitro ADME; conditions: 2 μM, pH 7.4; remark: listed apart in the source
[27] = Severe acute respiratory syndrome coronavirus 2, A549-hACE2-TMPRSS2, read-out: EC50 ± SD, WA1 (n = 2), reference run above Omicron BA.2.12.1, BA.4, BA.5

[N-]=[N+]=N[C@]1(CO)O[C@@H](n2ccc(N)nc2=O)[C@H](O)[C@@H]1O [R1479]
estimated oral bioavailability ([1]; human, in vivo, po): 6–18%

CCC(CC)COC(=O)[C@H](C)N[P@](=O)(OC[C@H]1O[C@@](C#N)(c2ccc3c(N)ncnn23)[C@H](O)[C@@H]1O)Oc1ccccc1 [compound 1, Remdesivir]
half-life ([2]; NHPs): 0.4 to 0.8 h | oral bioavailability of the intact prodrug ([2]; nonhuman primates): < 1% | reduction in hospitalizations ([3]; high-risk nonhospitalized patients (PINETREE), 3-day iv): 87% | effectiveness in reducing hospitalization ([3]; outpatient high-risk patients, 5-day oral Paxlovid, 3-day iv 1): ≥ 87% | shortening of hospitalization duration ([3]; patients hospitalized with COVID-19 (ACTT-1), iv): 5 days | AUC0–24h of 1 ([1]; 100 mg maintenance dose in humans): 2.6 µM·h | selectivity ratio [4]: ≥ 300 | Cmax [5]: 12.6 µM | EC50 [6, 27]: 160 ± 0.6 nM | fold change ± SD from WA1 ([6]; WA1 (n = 2), reference run above Omicron BA.2): 1.0 | fold change ± SD from WA1 ([6]; WA1 (n = 2), reference run above Omicron BA.2.12.1, BA.4, BA.5): 1.0 | fold change ± SD from WA1 ([6]; WA1 (n = 2), reference run above Omicron BA.2.75): 1.0 | fold change ± SD from WA1 ([6]; WA1 (n = 2), reference run above Omicron BA.4.6, BF.5): 1.0 | fold change ± SD from WA1 ([6]; WA1 (n = 2), reference run above Omicron XBB, BQ.1.1): 1.0 | fold change ± SD from WA1 ([6]; WA1 (n = 3), reference run above Delta): 1.0 | fold change ± SD from WA1 ([6]; WA1 (n = 7), reference run above Omicron BA.1): 1.0

N#C[C@@]1(c2ccc3c(N)ncnn23)O[C@H](CO)[C@@H](O)[C@H]1O [compound 2, GS-441524]
metabolism by adenosine deaminase [7]: weak substrates or inhibitors | half-life [8]: > 8 h | half-life [9]: 2.6 to 2.7 h | EC50 [10]: 1000 to 2000 nM | EC50 [6, 27]: 7360 ± 3460 nM

CC(C)C(=O)OC[C@H]1O[C@@](C#N)(c2ccc3c(N)ncnn23)[C@H](O)[C@@H]1O [compound 3, ((2R,3S,4R,5R)-5-(4-Aminopyrrolo[2,1-f][1,2,4]triazin-7-yl)-5-cyano-3,4-dihydroxytetrahydrofuran-2-yl)methyl Isobutyrate]
fold improved pH 7 solubility over 2 [11]: > 10 fold | fold improved pH 7 solubility over 6 [11]: > 100 fold | metabolism by adenosine deaminase [7]: weak substrates or inhibitors | fold improved forward permeability over parent 2 [12]: ~ 10 fold | efflux ratio at 2 h [13]: < 3 | GI S9 stability, cynomolgus monkey [14]: <2/<2/<2/<2 min | simulated human Cave [15]: ≈ 4.6 μM | GI S9 stability, rat [16]: <2/<2/<2/<2 min | GI S9 stability, human [17]: <2/<2/<2/<2 min | SARS-CoV-2 infectious and RNA loads in throat swabs ([18]; 1, 2, and 6 dpi, both dose groups): significant reductions | infectious viral loads in the BALF ([18]; 60 or 120 mg/kg oral once daily, throughout infection): statistically significant decreases | genomic RNA loads in BALF ([18]; 60 or 120 mg/kg, exception 60 mg/kg at day 1 post-infection): significantly reduced at nearly all study time points assessed | infectious virus in throat and nasal swabs ([18]; after day 4 post-infection, either dose group): no detectable infectious virus | viral RNA levels in terminal respiratory tissues ([18]; study day 6, both doses): significant reductions of viral RNA levels in 5 out of the 6 respiratory tissues evaluated | solution stability, pH 2 [19]: ≥94% | solution stability, pH 7 [19]: ≥96% | half-life at 2 μM [20]: < 4.3 min | AUC0–24 of 3 [21]: BLQ | EC50 [6, 27]: 1570 ± 210 nM | EC50 ([6]; Severe acute respiratory syndrome coronavirus 2, A549-hACE2-TMPRSS2, read-out: EC50 ± SD, WA1 (n = 2), reference run above Omicron BA.4.6, BF.5): 3960 ± 290 nM | GI S9 stability, dog [22]: <2/<2/<2/<2 min

CC(=O)OC[C@H]1O[C@@](C#N)(c2ccc3c(N)ncnn23)[C@H](O)[C@@H]1O [compound 5, ((2R,3S,4R,5R)-5-(4-Aminopyrrolo[2,1-f][1,2,4]triazin-7-yl)-5-cyano-3,4-dihydroxytetrahydrofuran-2-yl)methyl Acetate]
GI S9 stability, rat [16]: < 2 min

CC(C)C(=O)OC[C@H]1O[C@@](C#N)(c2ccc3c(N)ncnn23)[C@H](OC(=O)C(C)C)[C@@H]1OC(=O)C(C)C [compound 6]
GI S9 stability, cynomolgus monkey [14]: <2/<2/<2/<2 min | GI S9 stability, rat [16]: <2/<2/<2/<2 min | GI S9 stability, human [17]: <2/<2/<2/<2 min | solution stability, pH 2 [19]: ≥96% | solution stability, pH 7 [19]: ≥98% | GI S9 stability, dog [22]: <2/<2/<2/<2 min

CC(=O)OC[C@H]1O[C@@](C#N)(c2ccc3c(N)ncnn23)[C@H](OC(C)=O)[C@@H]1OC(C)=O [compound 7]
liver S9 stability, human [23]: <2/<2/<2/<2 min | liver S9 stability, cynomolgus monkey [24]: <2/<2/<2/<2 min | liver S9 stability, dog [25]: <2/<2/<2/<2 min | liver S9 stability, rat [26]: <2/<2/<2/<2 min
